Experimental data reported in patent US20250215039A1, “NUCLEOSIDES FOR TREATING CANCER” (PRIMEFOUR THERAPEUTICS, INC., priority 2022, published 2025).
Like-named read-outs stand apart in the source and are kept apart here.

System: cancer cell lines
Test: Cancer cell proliferation activity (CellTiterGlo, 72 h)
Type: cell-based
Settings: 72 h, 72 h, read-out: IC50 cell proliferation
Summary of the method: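 Cells seeded overnight at 37 °C, then dosed with compound at 0.1% final DMSO and incubated 72 h at 37 °C (5% or 10% CO2 by medium).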

Compound: Nc1nc(F)nc2c1ncn2[C@@H]1O[C@H](CO)[C@@H](O)[C@H]1O [compound 184, (2R,3R,4S,5R)-2-(6-amino-2-fluoro-9H-purin-9-yl)-5-(hydroxymethyl)tetrahydrofuran-3,4-diol]
- IC50 (5637 (bladder)): 190 nM
- IC50 (CLS439 (bladder)): 60 nM
- IC50 (HS729 (muscle)): 100 nM
- IC50 (J82 (bladder)): 100 nM
- IC50 (JAR (placenta)): 40 nM
- IC50 (MT3 (breast)): 90 nM
- IC50 (PANCI (pancreas)): 130 nM
- IC50 (PC3 (prostate)): 40 nM
- IC50 (RD (muscle)): 60 nM
- IC50 (T24 (bladder)): 60 nM
- IC50 (Homo sapiens, 22Rv1, 72 h, 22RV1 (prostate)): 220 nM
- IC50 (Homo sapiens, 786-0, 72 h, 786O (kidney)): 50 nM
- IC50 (Homo sapiens, A204, 72 h, A204 (muscle)): 20 nM
- IC50 (Homo sapiens, A549, 72 h, A549 (lung)): 40 nM
- IC50 (Homo sapiens, A673, 72 h, A673 (bone)): 270 nM
- IC50 (Homo sapiens, A2780, 72 h, A2780 (ovary)): 150 nM
- IC50 (Homo sapiens, A-375, 72 h, A375 (skin)): 40 nM
- IC50 (Homo sapiens, A-431, 72 h, A431 (skin)): 40 nM
- IC50 (Homo sapiens, ACHN, ACHN (kidney)): 20 nM
- IC50 (Homo sapiens, ASPC1, 72 h, ASPC1 (pancreas)): 30 nM
- IC50 (Homo sapiens, BT-20, 72 h, BT20 (breast)): 30 nM
- IC50 (Homo sapiens, BXPC-3, 72 h, BXPC3 (pancreas)): 80 nM
- IC50 (Homo sapiens, C-33-A, C33A (endometrial)): 50 nM
- IC50 (Homo sapiens, CAKI-1, 72 h, CAKI1 (kidney)): 10 nM
- IC50 (Homo sapiens, COLO 205, 72 h, COLO205 (colon)): 120 nM
- IC50 (Homo sapiens, COLO-678, 72 h, COLO678 (colon)): 60 nM
- IC50 (Homo sapiens, Ca-Ski, CASKI (endometrial)): 30 nM
- IC50 (Homo sapiens, Caco-2, 72 h, CACO2 (colon)): 190 nM
- IC50 (Homo sapiens, Calu-6, 72 h, CALU6 (lung)): 30 nM
- IC50 (Homo sapiens, DLD-1, 72 h, DLD1 (colon)): 90 nM
- IC50 (Homo sapiens, DU-145, 72 h, DU145 (prostate)): 20 nM
- IC50 (Homo sapiens, EFO-21, 72 h, EFO21 (ovary)): 70 nM
- IC50 (Homo sapiens, EJ-28, 72 h, EJ28 (bladder)): 30 nM
- IC50 (Homo sapiens, Granta-519, 72 h, GRANTA-519 (hematological)): 110 nM
- IC50 (Homo sapiens, HCT-15, 72 h, HCT15 (colon)): 40 nM
- IC50 (Homo sapiens, HCT-116, 72 h, HCT116 (colon)): 140 nM
- IC50 (Homo sapiens, HEK293, 72 h, HEK293 (kidney)): 50 nM
- IC50 (Homo sapiens, HL-60, 72 h, HL-60 (hematological)): 40 nM
- IC50 (Homo sapiens, HT-29, 72 h, HT29 (colon)): 70 nM
- IC50 (Homo sapiens, HT-1080, 72 h, HT1080 (connective tissue)): 70 nM
- IC50 (Homo sapiens, HeLa, HELA (endometrial)): 70 nM
- IC50 (Homo sapiens, HepG2, 72 h, HEPG2 (liver)): 40 nM
- IC50 (Homo sapiens, Hs-578T, HS578T (breast)): 80 nM
- IC50 (Homo sapiens, IGROV-1, 72 h, IGROV1 (ovary)): 50 nM
- IC50 (Homo sapiens, IMR-90, 72 h, IMR90 (lung)): 30 nM
- IC50 (Homo sapiens, JEG-3, 72 h, JEG3 (placenta)): 40 nM
- IC50 (Homo sapiens, JIMT-1, 72 h, JIMT1 (breast)): 20 nM
- IC50 (Homo sapiens, K562, 72 h, K-562 (hematological)): 120 nM
- IC50 (Homo sapiens, Kasumi 1, 72 h, KASUMI-1 (hematological)): 10 nM
- IC50 (Homo sapiens, L-363, 72 h, L-363 (hematological)): 20 nM
- IC50 (Homo sapiens, LoVo, LOVO (colon)): 20 nM
- IC50 (Homo sapiens, MCF7, 72 h, MCF7 (breast)): 100 nM
- IC50 (Homo sapiens, MDA-MB-231, 72 h, MDAMB231 (breast)): 40 nM
- IC50 (Homo sapiens, MDA-MB-435, 72 h, MDAMB435 (skin)): 50 nM
- IC50 (Homo sapiens, MDA-MB-436, 72 h, MDAMB436 (breast)): 40 nM
- IC50 (Homo sapiens, MDA-MB-468, 72 h, MDAMB468 (breast)): 80 nM
- IC50 (Homo sapiens, MG-63, 72 h, MG63 (bone)): 390 nM
- IC50 (Homo sapiens, MHH-ES-1, 72 h, MHHES1 (bone)): 70 nM
- IC50 (Homo sapiens, MIA PaCa-2, 72 h, MIAPACA2 (pancreas)): 130 nM
- IC50 (Homo sapiens, MINO, MINO (hematological)): 10 nM
- IC50 (Homo sapiens, MV4-11, 72 h, MV4-11 (hematological)): 20 nM
- IC50 (Homo sapiens, NCI-H23, 72 h, NCI-H23 (lung)): 40 nM
- IC50 (Homo sapiens, NCI-H82, 72 h, NCIH82 (lung)): 60 nM
- IC50 (Homo sapiens, NCI-H292, 72 h, NCIH292 (lung)): 90 nM
- IC50 (Homo sapiens, NCI-H460, 72 h, NCIH460 (lung)): 40 nM
- IC50 (Homo sapiens, OVCAR-3, 72 h, OVCAR3 (ovary)): 40 nM
- IC50 (Homo sapiens, OVCAR-4, 72 h, OVCAR4 (ovary)): 50 nM
- IC50 (Homo sapiens, PLC-PRF-5, 72 h, PLCPRF5 (liver)): 230 nM
- IC50 (Homo sapiens, Panc1005, 72 h, PANC1005 (pancreas)): 50 nM
- IC50 (Homo sapiens, Ramos, RAMOS (hematological)): 140 nM
- IC50 (Homo sapiens, SAOS-2, 72 h, SAOS2 (bone)): 50 nM
- IC50 (Homo sapiens, SF-268, 72 h, SF268 (brain)): 160 nM
- IC50 (Homo sapiens, SF-295, 72 h, SF295 (brain)): 160 nM
- IC50 (Homo sapiens, SK-BR-3, 72 h, SKBR3 (breast)): 10 nM
- IC50 (Homo sapiens, SK-HEP1, 72 h, SKHEP1 (liver)): 20 nM
- IC50 (Homo sapiens, SK-LMS-1, 72 h, SKLMS1 (uterus)): 40 nM
- IC50 (Homo sapiens, SK-MEL-5, 72 h, SKMEL5 (skin; SKMELS [sic] in Table 9E)): 50 nM
- IC50 (Homo sapiens, SK-MEL-28, 72 h, SKMEL28 (skin)): 100 nM
- IC50 (Homo sapiens, SK-N-AS, SKNAS (brain)): 30 nM
- IC50 (Homo sapiens, SK-N-SH, SKNSH (brain)): 30 nM
- IC50 (Homo sapiens, SK-OV-3, 72 h, SKOV3 (ovary)): 50 nM
- IC50 (Homo sapiens, SNB-75, 72 h, SNB75 (brain)): 100 nM
- IC50 (Homo sapiens, SU-DHL10, 72 h, SU-DHL-10 (hematological)): 180 nM
- IC50 (Homo sapiens, SU-DHL-6, 72 h, SU-DHL-6 (hematological)): 10 nM
- IC50 (Homo sapiens, SW-620, 72 h, SW620 (colon)): 30 nM
- IC50 (Homo sapiens, TE-671, 72 h, TE671 (muscle)): 150 nM
- IC50 (Homo sapiens, THP-1, 72 h, THP-1 (hematological)): 20 nM
- IC50 (Homo sapiens, U2OS, U20S (bone; U2OS in Table 9E)): 40 nM
- IC50 (Homo sapiens, U-87 MG, U87MG (brain)): 30 nM
- IC50 (Homo sapiens, UMUC3, 72 h, UMUC3 (bladder)): 30 nM
- IC50 (Homo sapiens, UO-31, 72 h, UO31 (kidney)): 50 nM
- IC50 (Homo sapiens, WSU-NHL, WSU-NHL (hematological)): 30 nM
- IC50 (NCI-H358M, NCIH358M (lung)): 70 nM
- IC50 (PBMC, PBMC (hematological)): 180 nM
- IC50 (RD-ES, RDES (bone)): 20 nM
